# Tested on: human thrombin
# Assay: test b) C2 (PT) against human thrombin
# Assay type: biochemical
# Details: PT = prothrombin time
# Protocol: b) Measurement of Thrombin Inhibition
# The procedure of method a) is repeated except that human thrombin (0.005 Units/ml) and the chromogenic substrate S-2238 (KabiVitrum AB, 7 μM) are employed.
# c) Measurement of Anticoagulant Activity
# An in vitro assay whereby human, rat or rabbit venous blood is collected and added directly to a sodium citrate solution (3.2 g/100 ml, 9 parts blood to 1 part citrate solution). Blood plasma is prepared by centrifugation (1000 g, 15 minutes) and stored at 2-4° C. Conventional prothrombin time (PT) tests are carried out in the presence of various concentrations of a test compound and the concentration of test compound required to double the clotting time, hereinafter referred to as CT2, is determined. In the PT test, the test compound and blood plasma are incubated at 37° C. for 10 minutes. Tissue thromboplastin with calcium (Sigma Limited, Poole, England) is added and fibrin formation and the time required for a clot to form are determined.
row,Compound,C2 (PT) against human thrombin
1,"O=C(c1ccc(-c2ccncc2)cc1)N1CCN(S(=O)(=O)c2cc3cc(Cl)ccc3o2)CC1 [Example 1, 1-(5-Chlorobenzo[b]furan-2-ylsulphonyl)-4-[4-(4-pyridyl)benzoyl]piperazine]",15 µM

# Tested on: not given
# Assay: not given
# Details: not given
row,Compound,melting point
1,"O=C(c1ccc(-c2ccncn2)cc1)N1CCN(S(=O)(=O)c2cc3cc(Cl)ccc3[nH]2)CC1 [Example 4, 1-(5-Chloroindol-2-ylsulphonyl)-4-[4-(4-pyrimidyl)benzoyl]piperazine]",229 to 230 °C
2,"O=C(c1ccc(-c2ccnnc2)cc1)N1CCN(S(=O)(=O)c2cc3cc(Cl)ccc3[nH]2)CC1 [Example 5, 1-(5-Chloroindol-2-ylsulphonyl)-4-[4-(4-pyridazinyl)benzoyl]piperazine]",170 to 172 °C
3,"O=C(c1ccc(-n2ccnc2)cc1)N1CCN(S(=O)(=O)c2cc3cc(Cl)ccc3[nH]2)CC1 [Example 6, 1-(5-Chloroindol-2-ylsulphonyl)-4-[4-(1-imidazolyl)benzoyl]piperazine]",155 to 165 °C

# Next, values leading:
row,melting point,Compound
1,185 to 188 °C,"O=C(c1ccc(-c2ccncc2)cc1)N1CCN(S(=O)(=O)c2cc3cc(Cl)ccc3[nH]2)CC1 [Example 3, 1-(5-chloroindol-2-ylsulphonyl)-4-[4-(4-pyridyl)benzoyl]piperazine]"
2,242 to 244 °C,"O=C(c1ccc(-c2ccncc2)cc1)N1CCN(S(=O)(=O)c2nc3ccc(Cl)cc3[nH]2)CC1 [Example 8, 1-(5-chlorobenzimidazol-2-ylsulphonyl)-4-[4-(4-pyridyl)benzoyl]piperazine]"
3,231 to 234 °C,"O=C(c1ccc(-c2ccncc2)cc1)N1CCN(S(=O)(=O)c2cc3ccc(Cl)cc3[nH]2)CC1 [Example 7, 1-(6-chloroindol-2-ylsulphonyl)-4-[4-(4-pyridyl)benzoyl]piperazine]"

# — US6753331B1, “Heterocyclic derivatives which inhibit factor Xa” (AstraZeneca AB, priority 1998, dated 2004)
